# Measured values from patent US5550243A, “B preparation of 2- and 3- azido derivates of 1,5-iminosugars” (priority 1995, dated 1996).
# Like-named read-outs stand apart in the source and are kept apart here.
# What was measured:
# visna virus = test: microbe, parasite or virus in culture; type: cell-based; conditions: for inhibition at 1000 µM / inhibition at 100 µM: Visna-maedi virus
# α-glucosidase = test: Inhibition of α-glucosidase in conventional enzyme assay; type: biochemical; conditions: 1 mM concentration
# β-glucosidase = test: Inhibition of β-glucosidase in conventional enzyme assay; type: biochemical; conditions: 1 mM concentration
# [1] = read-out: Visna % Plaque Redn (Conc)
# [2] = read-out: Visna % Plague Redn (Conc)
SMILES,inhibition at 1000 µM (visna virus; [1]) [%],inhibition at 100 µM (visna virus; [2]) [%],inhibition at 100 µM (visna virus; [1]) [%],other results
"N[C@H]1[C@H](O)[C@@H](CO)NC[C@@H]1O [Compound 37, 3-amino-1,3,5-trideoxy-1,5-imino-D-glucitol]",30,–,–,–
"CCCCN1CC(N(C)C)C(O)C(O)C1CO [Compound 28, 1,5-(butylimino)-1,2,5-trideoxy-2-(dimethylamino)-D-glucitol]",–,41,–,–
"NC1CN(CCCC(F)(F)F)C(CO)C(O)C1O [Compound 23, 2-amino-1,5-{(4,4,4-trifluorobutyl)imino}-1,2,5-trideoxy-D-glucitol]",9,–,–,–
"CCCCN1CC(N=[N+]=[N-])C(O)C(O)C1CO [Compound 13, 2-azido-1,5-(butylimino)-1,2,5-trideoxy-D-glucitol]",–,78,78,–
"CN(C)CCN[C@@H]1[C@H](O)[C@@H](CO)NC[C@H]1O [Compound 50, 3-[{2-(dimethylamino)ethyl}amino]-1,3,5-trideoxy-1,5-imino-D-altritol]",38,–,–,inhibition of α-glucosidase (α-glucosidase): 22%; inhibition of β-glucosidase (β-glucosidase): 22%
"CCCCN1CC(N)C(N)C(O)C1CO [Compound 46, 2,3-diamino-1,5-(butylimino)-1,2,3,5-tetradeoxy-D-glucitol]",3,–,–,–
"CCCCN1CC(NC(=O)CCC)C(O)C(O)C1CO [Compound 30, 1,5-(butylimino)-1,2,5-trideoxy-2-{(1-oxobutyl)amino}-D-glucitol]",–,20,–,–
"CCCCN1CC(N)C(O)C(O)C1CO [Compound 21, 2-amino-1,5-(butylimino)-1,2,5-trideoxy-D-glucitol]",–,66,66,–
"CCCCN1CC(NC)C(O)C(O)C1CO [Compound 29, 1,5-(butylimino)-1,2,5-trideoxy-2-(methylamino)-D-glucitol]",–,25,–,–
"N[C@H]1CN[C@H](CO)[C@@H](O)[C@@H]1O [Compound 20, 2-amino-1,2,5-trideoxy-1,5-imino-D-glucitol]",–,–,91,–
"CCC(CC)CN1CC(N=[N+]=[N-])C(O)C(O)C1CO [Compound 14, 2-azido-1,5-{(2-ethylbutyl)imino}-1,2,5-trideoxy-D-glucitol]",–,–,67,–
"CCCCN1CC(NC(=O)CCC)C(OC(=O)CCC)C(OC(=O)CCC)C1COC(=O)CCC [Compound 31, 1,5-(butylimino)-1,2,5-trideoxy-2-{(1-oxobutyl)amino}-D-glucitol, tributanoate]",–,29,–,–
"[N-]=[N+]=N[C@H]1CN[C@H](CO)[C@@H](O)[C@@H]1O [Compound 12, 2-azido-1,2,5-trideoxy-1,5-imino-D-glucitol]",–,–,76,–
"CCC(CC)CN1CC(N)C(O)C(O)C1CO [Compound 22, 2-amino-1,5-{(2-ethylbutyl)imino}-1,2,5-trideoxy-D-glucitol]",–,–,–,"Visna % Plaque Redn (Conc), only a concentration bound printed (visna virus; Table 3, no % printed): > 1 mm"
"[N-]=[N+]=NC1CN(CCCC(F)(F)F)C(CO)C(O)C1O [Compound 15, 2-azido-1,5-{(4,4,4-trifluorobutyl)imino}-1,2,5-trideoxy-D-glucitol]",41,–,–,–
